“Also recorded” adds a separate entry of the source.
Experiments:
Balb/C mice [1] = test: ELISA for subclass (IgG1/IgG2a) of HBsAg specific antibody; format: in vivo; conditions: Example 6; HBsAg specific antibody in serum; FIG. 15
Balb/C mice [2] = test: CD8 IFN-g ELISA of spleen cells after HBsAg DNA vaccine immunization; conditions: Example 2; prime and boost; FIG. 4
Balb/C mice [3] = test: IFN-g ELISPOT of spleen cells after HBsAg DNA vaccine immunization; conditions: Example 2; prime and boost; FIG. 4
Balb/C mice [4] = test: Anti-sAg and anti-cAg antibody ELISAs after PMID with HBV sAg/cAg plasmid; format: in vivo; conditions: Example 7; either HBV antigen (sAg, cAg); data not shown
Balb/C mice [5] = test: IL-4 ELISPOT after PMID with HBV sAg/cAg plasmid; format: in vivo
Balb/C mice [6] = conditions: Example 2; prime and boost, HBsAg plasmid with HCMV promoter; FIG. 3
Balb/C mice [7] = test: g-IFN ELISPOT after PMID with HBV sAg/cAg plasmid; format: in vivo
[8] = Example 7, summary of both experiments

| SMILES | ratio of IgG1/IgG2a (Balb/C mice [1]) | cellular response, IFN-g ELISA (Balb/C mice [2]) | cellular response, ELISPOTs (Balb/C mice [3]) | antibody titers (Balb/C mice [4]) | IL-4 secretion, as measured by ELISPOT assay (Balb/C mice [5]; Example 7, first experiment (prime only), not shown) | EL-4 ELISPOTs (Balb/C mice [5]; [8]) | Antibody levels (Balb/C mice [6]) | g-IFN secretion (Balb/C mice [7]; Example 7, first experiment, highest dose of DNA, delivered right before or right after PMID) | g-IFN secretion (Balb/C mice [7]; Example 7, first experiment, highest dose of DNA, given 24 hours after PMID) | g-IFN secretion (Balb/C mice [7]; Example 7, first experiment, low doses of DNA, administration 24 hours post PMID compared with other time points) | g-IFN secretion (Balb/C mice [7]; Example 7, first experiment, low doses of HBV-encoding DNA, right before, right after or 24 hours post PMID) | g-IFN response with class I-restricted peptide (CD8+ cells) (Balb/C mice [7]; Example 7, first experiment, not shown) | frequency of cells which secreted g-IFN in response to antigen (Balb/C mice [7]; Example 7, first experiment, sAg peptide library (primarily CD4+ cells), 2 weeks post prime, FIG. 16) | IFN-g ELISPOT response (Balb/C mice [7]; [8]) | optimal time point for augmenting g-IFN-secreting cells (Balb/C mice [7]; Example 7, time of administration relative to PMID) |
| --- | --- | --- | --- | --- | --- | --- | --- | --- | --- | --- | --- | --- | --- | --- | --- |
| CCCCC[C@H](O)/C=C/[C@H]1[C@H](O)CC(=O)[C@@H]1C/C=C\CCCC(=O)O [PGE2] | does not have the same effect overall |  |  |  |  |  |  |  |  |  |  |  |  |  |  |
| CC(C)Cn1cnc2c(N)nc3ccccc3c21 [imiquimod, 1-(2-methyl-propyl)-1H-imidazo[4,5-c]quinolin-4-amine] |  | enhanced the responses | enhanced the responses | little effect; also recorded: did not enhance antibody responses | no effect | little effect | strong reduction in antibody levels | slightly inhibitory | augments PMID | most effective | enhances g-IFN secretion | comaparable responses | enhancement of the frequency of cells which secreted g-IFN | primarily enhanced; also recorded: augments the frequency of g-IFN-secreting cells | about a day and upto 7 days after PMID |
